EP0812190B1 (priority 1993, dated 1995)
Read-outs that look alike come from different tables or passages of the source.

How the values were obtained:
rabbit jejunum = test: Tyramine potentiation in rabbit jejunum preparation
[1] = test system: anoxia-induced hyperactive syndrome; conditions: 0.5 mg/kg/day to nursing mothers
Procedure: Anoxia was performed on rat pups on the first post-natal day. They were placed in a glass chamber and exposed to 100% nitrogen for 25 minutes. They were resuscitated by intermittent massage softly applied to the chest and then returned to their respective mothers. Control rats received the same treatment but with air instead of nitrogen.
Locomotion was measured in 6 fully computerized cages (28 x 28 cm) by recording the number of crossings over a given period of time. Crossings of grid infrared beams at 4-cm intervals initiated electrical impulses which fed a counter.
Recordings of motor activity were made at the ages of 15 and 20 days, over a period of 15 minutes.

[2] = test system: passive avoidance response
Procedure: [R] (+)PAI or [S] (-)PAI were administered according to one of the following protocols.
Protocol A - Nursing mothers were given a dose of either isomer of 1-1.5 mg/kg/day in drinking water until weaning at 21 days. Following that, the weaned offsprings were directly treated with the same dose for 20 days. Treatment was terminated at 40 days and the test was performed at 60 days, that is 20 days after the last dose of the drug.
Protocol B - The dose was reduced to 0.5 mg/kg/day administered to the nursing mother until weaning at 21 days, then directly to the young rats to 60 days at which time the test was performed. ,
Passive Avoidance Test - The apparatus consisted of a lit chamber adjoining a dark chamber and a sliding door separating the two. At training, a rat was placed in the lit chamber for 30 seconds, and then the door was opened. The rat moved to the dark chamber with a latency that was recorded. Upon entry of the rat into the dark compartment, the door was closed and a 0.3 mA foot-shock was delivered for 3 seconds.

[3] = test system: amphetamine-induced stereotype behavior; conditions: 0.5 mg/kg/day in drinking water, lateral head movements over 1 minute
Procedure: The extent of this behavior is rated in accordance with the number of lateral head movements over a period of 1 minute.
Following that, amphetamine was injected s.c. at a dose of 0.5 mg/kg. 45 minutes later, lateral head movements were counted.

MAO-B = biological target: T1, MAO-B (Rattus norvegicus, UniProt P19643); conditions: 1 mg/kg i.p. single dose; whole brain
T1 sequence (P19643 1-520): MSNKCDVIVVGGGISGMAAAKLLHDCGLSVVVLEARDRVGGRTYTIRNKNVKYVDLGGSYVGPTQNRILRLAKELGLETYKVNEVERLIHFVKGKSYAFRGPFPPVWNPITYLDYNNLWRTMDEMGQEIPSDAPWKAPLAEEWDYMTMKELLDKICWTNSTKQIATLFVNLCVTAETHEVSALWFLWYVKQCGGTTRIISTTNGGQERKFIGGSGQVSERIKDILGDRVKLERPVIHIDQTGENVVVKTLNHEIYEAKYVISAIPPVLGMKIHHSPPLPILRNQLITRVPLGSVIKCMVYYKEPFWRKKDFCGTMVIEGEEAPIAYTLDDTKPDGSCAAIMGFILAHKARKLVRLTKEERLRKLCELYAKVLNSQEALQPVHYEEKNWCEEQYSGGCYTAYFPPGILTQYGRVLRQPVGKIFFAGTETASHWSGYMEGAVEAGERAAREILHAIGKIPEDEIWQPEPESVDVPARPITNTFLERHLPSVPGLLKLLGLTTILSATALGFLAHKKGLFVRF
Procedure: Activity of MAO-B was determined in whole brain tissues as described hereinabove.

guinea-pig ileum [4] = test: tissue or blood; conditions: Cavia porcellus, read-out: Percent relaxation
guinea-pig ileum [5] = test system: guinea-pig ileum
MAO-A = biological target: T2, MAO-A (Rattus norvegicus, UniProt P21396); conditions: 21 days
T2 sequence (P21396 1-526): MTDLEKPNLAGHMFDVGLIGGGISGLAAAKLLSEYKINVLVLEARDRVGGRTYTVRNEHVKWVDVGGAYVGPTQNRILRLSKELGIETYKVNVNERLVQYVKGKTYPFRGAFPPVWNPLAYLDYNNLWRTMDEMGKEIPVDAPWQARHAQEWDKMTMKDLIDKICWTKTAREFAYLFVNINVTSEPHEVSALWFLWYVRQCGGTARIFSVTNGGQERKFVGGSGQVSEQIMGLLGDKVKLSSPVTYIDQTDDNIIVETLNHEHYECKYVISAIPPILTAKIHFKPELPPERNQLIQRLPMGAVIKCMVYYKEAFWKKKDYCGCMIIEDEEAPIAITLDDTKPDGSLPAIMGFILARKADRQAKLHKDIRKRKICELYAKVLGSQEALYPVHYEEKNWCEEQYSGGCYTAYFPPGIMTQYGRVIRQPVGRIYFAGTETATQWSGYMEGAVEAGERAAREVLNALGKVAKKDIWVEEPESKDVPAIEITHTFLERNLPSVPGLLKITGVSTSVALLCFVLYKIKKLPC
Procedure: (+)PAI or the racemic mixture at three dose levels (0.05, 0.1 and 0.5mg/kg) by oral administration, one dose daily for 21 days, and decapitated 2 hours after the last dose.

[6] = Protocol A, Anoxia-lesioned rats
[7] = Protocol B, Anoxia-lesioned rats

SMILES: C#CCN[C@@H]1CCc2ccccc21 [[R](+)PAI, R(+)-N-propargyl-1-aminoindan]
- Percent relaxation (rabbit jejunum; PAI HCl enantiomer alone 0.2-4.0 µM): 0%
- Percent relaxation (rabbit jejunum; tyramine 40 µM after 0.2 µM PAI HCl enantiomer): 67%
- Percent relaxation (rabbit jejunum; tyramine 40 µM after 2 µM PAI HCl enantiomer): 88%
- Percent relaxation (rabbit jejunum; tyramine 40 µM after 40 µM PAI HCl enantiomer): 85-90%
- numbers of crossings of infrared beam grid over 15 minutes ([1]; Anoxia-lesioned, 15-day old rats): 276 ± 186(15)a
- numbers of crossings of infrared beam grid over 15 minutes ([1]; Anoxia-lesioned, 20-day old rats): 737 ± 150 (16) c
- numbers of crossings of infrared beam grid over 15 minutes ([1]; Control, 15-day old rats): 254 ± 149(11)c
- numbers of crossings of infrared beam grid over 15 minutes ([1]; Control, 20-day old rats): 719 ± 110(13)
- latency After Electroshock [2, 6]: 239 ± 99 s
- latency Before Electroshock [2, 6]: 49 ± 10 s
- percent increase of latency After Electroshock ([2]; Protocol A, Anoxia-lesioned rats, versus corresponding anoxia group): 19%
- latency After Electroshock ([2]; Protocol A, Control rats): 220 ± 100 s
- percent increase of latency After Electroshock ([2]; Protocol A, Control rats, versus corresponding control group): +9%
- latency Before Electroshock ([2]; Protocol B (0.5 mg/kg/day), Control rats): 48 ± 11 s
- latency After Electroshock [2, 7]: 137 ± 126 s
- latency Before Electroshock [2, 7]: 52 ± 12 s
- percent increase of latency After Electroshock [2, 7]: +15%
- latency After Electroshock ([2]; Protocol B, Control rats): 128 ± 119 s
- percent increase of latency After Electroshock ([2]; Protocol B, Control rats): +23%
- Stereotype Behavior Rating ([3]; control senescent rats, 45 min after amphetamine 0.5 mg/kg s.c.): 126±16
- Stereotype Behavior Rating ([3]; hypoxia lesioned senescent rats): 143±6
- time of maximal inhibition of MAO-B after injection (MAO-B): 6 h
- inhibition at 2 µM (guinea-pig ileum [4]): 0%
- inhibition at 4 µM (guinea-pig ileum [4]): 0%
- inhibition at 10 µM (guinea-pig ileum [4]): 0%
- inhibition at 40 µM (guinea-pig ileum [4]): 37%
- inhibition at 400 µM (guinea-pig ileum [4]): 100%
- inhibition at 700 µM (guinea-pig ileum [4]): 100%
- gram-tension (guinea-pig ileum [5]; bethanechol 0.8 µM, 400 µM PAI HCl enantiomer): 0.2 gram-tension
- gram-tension (guinea-pig ileum [5]; bethanechol 2 µM, 400 µM enantiomer): 0.3 gram-tension
- gram-tension (guinea-pig ileum [5]; bethanechol 4 µM, 400 µM enantiomer): 0.7 gram-tension
- gram-tension (guinea-pig ileum [5]; bethanechol 8 µM, 400 µM enantiomer): 1.0 gram-tension
- gram-tension (guinea-pig ileum [5]; bethanechol 20 µM, 400 µM enantiomer): 2.0 gram-tension
- gram-tension (guinea-pig ileum [5]; bethanechol 40 µM, 400 µM enantiomer): 2.8 gram-tension
- gram-tension (guinea-pig ileum [5]; bethanechol 80 µM, 400 µM enantiomer): 3.1 gram-tension
- gram-tension (guinea-pig ileum [5]; bethanechol 200 µM, 400 µM enantiomer): 4.3 gram-tension
- inhibition of brain MAO-A (MAO-A; 0.1mg/kg daily oral): ≤ 20%
- inhibition of MAO-A (MAO-A; 0.5mg/kg daily oral): less than 50%
